Here are results for two molecules from patent publication US20100189807A1, “Use of an ozone / oxygen mixture as a primary anticancer therapy via intraperitoneal insufflation” (priority 2009, published 2010).

The subject of one series is VX2 auricular carcinoma. The series is described as follows: Therapy of auricular VX2 carcinoma in rabbits by intraperitoneal gas insufflation (survival, tumor clearance, lung metastases). It counts as in vivo, New Zealand White (NZW) rabbit. The settings on record: n=14 (O3/O2), n=13 (O2).
The nature of series [1]: Hematological and clinical chemistry blood parameters. It counts as in vivo, New Zealand White (NZW) rabbit. On the procedure: Arterial blood samples from the central auricular artery of the left tumor free ear were taken on day 14 post inoculation (directly before the first gas insufflation/sham treatment) and on day 19 post inoculation (24 h after the last gas insufflation/sham treatment). Additional blood samples were taken on day 90 from the O3/O2-rem animals (FIG. 1a). For hematological investigations we used an autoanalyzer (Vet abc™ Animal Blood Counter, ABX Diagnostics, Goettingen, Germany), that has been carefully adjusted and validated for the analysis of rabbit blood. For differential blood counts the RBC count was determined together with the hematocrit (HCT) and hemoglobin (HGB). […] Data were expressed as mean values±SEM. For clinical chemistry investigations creatinine, GOT, and GPT values were measured with the Reflovet® Plus system (Roche Diagnostics GmbH, Mannheim, Germany) to monitor for kidney and liver functions.
For comparison of survival rates of the three experimental groups the logrank test was performed considering p values<0.05 as significant. The survival probability of rabbits calculated from the time of tumor cell inoculation until day 90 was depicted according to the Kaplan-Meier method. […] Statistical differences in mean body weight between the experimental groups were evaluated at daily intervals with the unpaired Student's t test with two tail p values. […]

For series [2] the following is noted: inhaled ozone; cited from earlier work.

Take `O=O` [O2]: the “number of rabbits with remission of the tumor” value in the series with VX2 auricular carcinoma was “two”. The RBC in series [1] (d 14, directly before the first insufflation) is 5.68 10^6/mm^3; in series [1] (d 19, 24 h after the last insufflation), 5.31 10^6/mm^3.
Regarding `O=[O+][O-]` [ozone], the “grade of adverse effect (weight loss)” value in series [2] is “grade II”.
